Read-outs that look alike come from different tables or passages of the source.
Legend:
[1] = Metabolic stability in mouse liver microsomes; assay type: in vitro ADME, CD-1 mice
Method: (§1) Drug-like Properties: Concepts, Structure Design and Methods: from ADME to Toxicity Optimization. […] Screen. […] After incubation for appropriate time (such as 5, 10, 20, 30 and 60 minutes), samples were collected, and an appropriate termination solution (glacial acetonitrile containing 200 ng/mL tolbutamide and 200 ng/mL labetalol (i.e. acetonitrile at 4° C.)) was added to stop the reaction. Sample treatment (n=1): each appropriate sample was added, vortexed and centrifuged at high speed. The supernatants were collected, and detected the substrate by HPLC-MS/MS. The peak area at the 0 min was set as 100%. The peak areas at other time points were converted to percentages of the remaining amount. The natural logarithms of the percentage of remaining amount at each time point was plotted against the incubation time, and the slope (−k) was calculated. Then, Clint (μL/min/mg) and half-life (T½, min) of the compounds were calculated following the equation: Inherent clearance rate (Clint)=(k*Volume of incubation solution)/Mass of liver microsomes.

[2] = biological target: ATR (Homo sapiens (Human), UniProt Q13535); test: ATR kinase inhibition assay (HTRF); assay type: biochemical; conditions: p53 substrate, ATP 150 nM
ATR, sequence (Q13535 whole entry): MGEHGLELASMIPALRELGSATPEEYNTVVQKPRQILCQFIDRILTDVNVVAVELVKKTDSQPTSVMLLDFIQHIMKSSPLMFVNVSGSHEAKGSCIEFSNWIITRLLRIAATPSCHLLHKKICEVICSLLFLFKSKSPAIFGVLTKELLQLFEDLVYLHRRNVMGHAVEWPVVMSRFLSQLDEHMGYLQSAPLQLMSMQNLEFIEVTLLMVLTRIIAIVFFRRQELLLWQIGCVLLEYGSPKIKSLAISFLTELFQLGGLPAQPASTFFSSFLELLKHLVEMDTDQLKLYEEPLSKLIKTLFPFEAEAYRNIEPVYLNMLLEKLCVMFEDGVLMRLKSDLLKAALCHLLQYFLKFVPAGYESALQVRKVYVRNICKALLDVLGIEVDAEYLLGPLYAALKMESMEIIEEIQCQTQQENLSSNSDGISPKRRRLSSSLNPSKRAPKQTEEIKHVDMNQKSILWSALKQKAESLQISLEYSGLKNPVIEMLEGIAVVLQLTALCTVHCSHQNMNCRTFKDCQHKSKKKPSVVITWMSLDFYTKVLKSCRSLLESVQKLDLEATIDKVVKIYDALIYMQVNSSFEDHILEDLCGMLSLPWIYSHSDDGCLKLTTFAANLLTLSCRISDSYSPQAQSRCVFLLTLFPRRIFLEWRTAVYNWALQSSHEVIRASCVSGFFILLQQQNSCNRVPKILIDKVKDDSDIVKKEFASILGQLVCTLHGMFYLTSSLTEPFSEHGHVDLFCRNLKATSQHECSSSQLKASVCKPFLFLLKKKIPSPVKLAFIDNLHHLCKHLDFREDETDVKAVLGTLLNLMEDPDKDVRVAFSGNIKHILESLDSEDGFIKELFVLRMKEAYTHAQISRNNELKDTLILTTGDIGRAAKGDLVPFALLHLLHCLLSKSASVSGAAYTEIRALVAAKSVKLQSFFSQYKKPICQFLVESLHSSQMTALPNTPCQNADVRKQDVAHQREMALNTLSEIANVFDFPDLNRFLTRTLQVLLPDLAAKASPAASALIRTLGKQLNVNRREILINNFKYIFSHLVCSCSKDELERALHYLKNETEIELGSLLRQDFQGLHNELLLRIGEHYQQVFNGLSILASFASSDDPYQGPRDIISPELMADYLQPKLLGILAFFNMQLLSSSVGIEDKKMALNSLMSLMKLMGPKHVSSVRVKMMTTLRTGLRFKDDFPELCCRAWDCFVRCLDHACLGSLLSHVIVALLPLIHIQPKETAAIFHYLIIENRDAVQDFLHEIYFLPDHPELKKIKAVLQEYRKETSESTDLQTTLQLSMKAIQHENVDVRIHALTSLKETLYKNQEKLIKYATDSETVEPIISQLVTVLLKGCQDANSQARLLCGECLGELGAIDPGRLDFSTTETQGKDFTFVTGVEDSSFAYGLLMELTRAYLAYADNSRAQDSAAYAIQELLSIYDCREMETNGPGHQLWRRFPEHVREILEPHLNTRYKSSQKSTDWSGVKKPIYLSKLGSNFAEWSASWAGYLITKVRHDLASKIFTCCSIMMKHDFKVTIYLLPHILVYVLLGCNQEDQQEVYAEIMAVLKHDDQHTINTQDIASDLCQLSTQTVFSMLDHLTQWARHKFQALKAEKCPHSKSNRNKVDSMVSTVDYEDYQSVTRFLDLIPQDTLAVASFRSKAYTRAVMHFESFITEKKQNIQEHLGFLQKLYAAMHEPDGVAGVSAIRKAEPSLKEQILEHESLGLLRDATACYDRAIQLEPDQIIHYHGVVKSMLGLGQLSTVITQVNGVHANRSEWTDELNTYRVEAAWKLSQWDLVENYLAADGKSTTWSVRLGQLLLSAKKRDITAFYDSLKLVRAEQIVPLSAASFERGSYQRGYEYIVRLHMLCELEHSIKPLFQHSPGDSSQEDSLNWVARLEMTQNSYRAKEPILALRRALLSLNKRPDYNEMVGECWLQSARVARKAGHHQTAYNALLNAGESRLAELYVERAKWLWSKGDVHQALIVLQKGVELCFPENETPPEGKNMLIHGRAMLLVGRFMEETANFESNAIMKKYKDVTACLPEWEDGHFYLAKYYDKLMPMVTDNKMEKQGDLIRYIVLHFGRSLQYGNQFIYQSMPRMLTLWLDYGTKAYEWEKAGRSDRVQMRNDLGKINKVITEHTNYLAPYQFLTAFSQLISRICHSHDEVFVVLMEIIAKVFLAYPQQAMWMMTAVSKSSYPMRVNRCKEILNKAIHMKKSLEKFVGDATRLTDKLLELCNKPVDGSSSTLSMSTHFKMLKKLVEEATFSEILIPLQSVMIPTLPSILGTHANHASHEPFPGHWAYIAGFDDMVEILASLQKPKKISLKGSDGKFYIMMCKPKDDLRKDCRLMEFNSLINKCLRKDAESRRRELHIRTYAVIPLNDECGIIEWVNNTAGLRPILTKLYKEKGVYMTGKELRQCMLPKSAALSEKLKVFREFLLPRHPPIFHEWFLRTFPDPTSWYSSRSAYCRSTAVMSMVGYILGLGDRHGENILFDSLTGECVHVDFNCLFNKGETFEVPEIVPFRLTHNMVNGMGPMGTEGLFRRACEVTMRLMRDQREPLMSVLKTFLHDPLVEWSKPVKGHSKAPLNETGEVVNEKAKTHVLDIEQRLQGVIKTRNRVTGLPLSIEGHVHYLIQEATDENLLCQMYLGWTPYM
ATR, sequence (Q8WXE1 whole entry partner): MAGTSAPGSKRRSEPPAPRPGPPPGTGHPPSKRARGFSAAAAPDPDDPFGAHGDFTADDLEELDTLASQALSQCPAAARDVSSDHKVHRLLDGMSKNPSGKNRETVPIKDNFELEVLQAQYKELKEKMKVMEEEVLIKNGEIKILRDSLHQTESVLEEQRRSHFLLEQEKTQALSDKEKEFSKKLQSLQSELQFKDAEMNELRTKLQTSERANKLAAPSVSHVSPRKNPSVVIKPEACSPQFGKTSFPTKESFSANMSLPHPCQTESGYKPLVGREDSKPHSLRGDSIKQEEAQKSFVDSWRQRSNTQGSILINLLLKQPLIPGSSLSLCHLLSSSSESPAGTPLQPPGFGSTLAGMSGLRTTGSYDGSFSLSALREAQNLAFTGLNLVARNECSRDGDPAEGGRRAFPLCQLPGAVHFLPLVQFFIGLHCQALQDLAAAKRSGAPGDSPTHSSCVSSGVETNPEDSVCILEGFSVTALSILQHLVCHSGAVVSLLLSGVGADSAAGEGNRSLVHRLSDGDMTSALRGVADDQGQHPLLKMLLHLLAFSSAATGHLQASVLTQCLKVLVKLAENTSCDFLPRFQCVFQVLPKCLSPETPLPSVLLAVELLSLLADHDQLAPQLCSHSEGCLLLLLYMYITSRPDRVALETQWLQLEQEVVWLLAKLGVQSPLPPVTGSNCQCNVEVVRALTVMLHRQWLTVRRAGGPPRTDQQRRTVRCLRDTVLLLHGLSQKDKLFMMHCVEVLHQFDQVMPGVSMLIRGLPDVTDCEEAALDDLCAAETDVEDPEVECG
Method: This experiment adopted Homogeneous time-resolved fluorescence technology (HTRF®) of Cisbio Company for assay.
Experiment method: buffers were prepared as follows:
Preparation of solutions of the test compounds: The example compounds shown in the table below were prepared into solutions using DMSO as solvent, the stock solution typically being 10 mM. The maximum starting concentration in this experiment was 3 μM, DMSO 3-fold serial dilutions for concentrations, the serially diluted solution was added to each well of the corresponding 384-well plate (geriner bio-one, Cat #784075) to give final concentrations of 3000, 1000, 333, 111, 37, 12.3, 4.12, 1.37, 0.457, 0.152 nM, respectively, and the corresponding amount of DMSO was added to the additional wells to be used as negative or positive control wells, respectively.
The enzyme and substrate were separately dissolved and diluted in two tubes with the buffer prepared above at the following concentrations:
5 μL of the ATR protein solution from tube A was added to the compound-containing wells and the negative control wells in the assay plates using an electric multichannel pipettor, and the same volume of the prepared buffer (medium only, no enzyme) was added to the positive control wells. The plates were centrifuged for one minute at 1000 rpm, and then placed in an incubator at 25° C. for 15 minutes. 5 μL of the substrate mix solution from tube B was added to the positive control well, negative control well and the compound-containing well of the assay plates in the same manner, centrifuged and incubated at 25° C. for 90 minutes.
During the reaction, after ATR phosphorylated the substrate p53, two antibodies were added. Among them, anti-phospho-p53-Eu, as an energy donor, can specifically bind to the phosphorylation site of p53, while anti-GST-d2, as an energy receptor, can specifically bind to the GST-tagged p53. Upon excitation by a laser with certain wavelength (the excitation wavelength in this experiment is 340 nm), the energy donor can emit emission light of 615 nm, and when the energy donor and the energy receptor are close enough in space (that is, two antibodies are connected to p53 at the same time), energy transfer can occur between the energy donor and the energy receptor, so that the energy receptor can emit emission light of 665 nm. The two emission lights were detected by a plate reader, and the ratio of the signals at 665 nm and 615 nm was calculated. The IC50 of the samples tested can be obtained by plotting and calculation.
10 μL per well of the detection solution was added to the positive control, negative control and compound wells of the assay plate using an electric multichannel pipette, centrifuged and incubated overnight at 4° C., and read with the plate reader Envision 2104.
Compound inhibition rate was calculated using interpolation. The mean values of the positive and negative controls were calculated respectively, and the following formula was used to calculate the inhibition rates of the compounds:
Inhibition rate Minimum response+(Compound concentration ^Curve slope)*(Maximum response−Minimum response)/(Compound concentration^Curve slope+Half inhibition concentration ^Curve slope)
The IC50 value of each compound to enzyme activity was obtained.

[3] = Pharmacokinetic (PK) assay in mice; assay type: in vivo; conditions: CD-1 mice; for AUC(0-t): read-out: AUC0-24 h
Method: The PK of each compound was determined as follows: 6 CD-1 mice (obtained from Shanghai Lingchang Biotechnology Co., Ltd.) were divided into two groups, 3 mice in each group. […] Blood samples were collected from saphenous vein of lower leg in each group at 0, 0.083, 0.25, 0.5, 1, 2, 4, 6, 8 and 24 h after administration. Approximately 40 μL of the blood samples were collected in anticoagulant tubes containing EDTA-K2. Immediately after collection, the tubes were inverted at least 5 times to ensure adequate mixing, and then placed on ice. The blood samples collected at each time point were centrifuged at 4° C., 8000 rpm for 5 minutes to obtain plasma. Another 1.5 mL centrifuge tube was marked with the compound name, animal number, and time point, and the plasma was transferred to this tube. The plasma was stored at −80° C. until analysis.
Compound concentrations in plasma were determined by UPLC-MS/MS method, and the pharmacokinetic parameters were calculated by Phoenix WinNolin 6.4 pharmacokinetic software on the obtained data.

[4] = Metabolic stability in human liver microsomes; assay type: in vitro ADME
Method: as §1

half-life at 1 μM ([1]; CD-1, 1 μM compound): 0.972 h
microsomal CLint at 1 μM ([1]; CD-1, read-out: CLint(mic)): 23.8 µL/min/mg
Remain % (T = 60 min) ([1]; T = 60 min): 44.4%
IC50 [2]: 17.4 nM
CL_obs ([3]; IV dose 1 mg/kg): 18.3 mL/min/kg
half-life ([3]; mouse, plasma, IV dose 1 mg/kg): 1.51 h
Vd ([3]; mouse, plasma, IV dose 1 mg/kg, read-out: Vss): 1.68 L/kg
half-life ([3]; mouse, plasma, Po dose 5 mg/kg): 2.57 h
bioavailability ([3]; mouse, plasma, Po dose 5 mg/kg vs IV dose 1 mg/kg): 75.6%
C0 ([3]; mouse, IV dose 1 mg/kg, plasma): 823 ng/mL
AUC(0-t) ([3]; mouse, IV dose 1 mg/kg, plasma): 925 ng·h/mL
Cmax ([3]; mouse, Po dose 5 mg/kg, plasma): 1080 ng/mL
AUC(0-t) ([3]; mouse, Po dose 5 mg/kg, plasma): 3440 ng·h/mL
half-life at 1 μM ([4]; 1 μM compound): 1.97 h
Remain % (T = 60 min) ([4]; T = 60 min): 65.0%
microsomal CLint at 1 μM ([4]; read-out: CLint(mic)): 11.7 µL/min/mg
SMILES: C[C@@H]1COCCN1c1cc(N2CC3CCC(C2)O3)nc2c(-c3cc[nH]n3)cnn12 [Example 1, 3-(7-((R)-3-methylmorpholino)-3-(1H-pyrazol-3-yl)pyrazolo[1,5-a]pyrimidin-5-yl)-8-oxa-3-azabicyclo[3.2.1]octane]

From US20240294550A1, “8-OXA-3-AZABICYCLO[3.2.1]OCTANE COMPOUNDS OR SALT THEREOF, AND PREPARATION METHOD AND USE THEREOF” (LITTDD MEDICINES LTD, priority 2021, published 2024)
